Experimental findings from ChEMBL document CHEMBL1201862, “PubChem BioAssay data set” (2004) are described below.

Active and inactive are the calls of the source.

Assay [1] deals with T1, Polyadenylate-binding protein 1 (Homo sapiens, UniProt P11940). The assay is described as follows: PABP1 MLLE–PAM2 binding inhibitor potency, dose response, biochemical, fluorescence polarization, FITC-PAM2 peptide (AID 602259). To be noted: read-out: IC50_Mean. Format: functional. (Fluorescence polarisation rises when a labelled molecule tumbles more slowly, as on binding a larger partner.)

In assay [2] the target is T1, Polyadenylate-binding protein 1. The assay is described as follows: PABP1 MLLE–PAM2 interaction inhibitors, dose response, miRNA deadenylation inhibitor project, biochemical, fluorescence polarization, Cy5-PAM2 peptide, secondary (AID 602260). Format: functional. Particulars: read-out: IC50_Mean.
For assay [3], the target named is T2, Short transient receptor potential channel 4 (Mus musculus, UniProt Q9QUQ5).
T2 sequence (Q9QUQ5 whole entry): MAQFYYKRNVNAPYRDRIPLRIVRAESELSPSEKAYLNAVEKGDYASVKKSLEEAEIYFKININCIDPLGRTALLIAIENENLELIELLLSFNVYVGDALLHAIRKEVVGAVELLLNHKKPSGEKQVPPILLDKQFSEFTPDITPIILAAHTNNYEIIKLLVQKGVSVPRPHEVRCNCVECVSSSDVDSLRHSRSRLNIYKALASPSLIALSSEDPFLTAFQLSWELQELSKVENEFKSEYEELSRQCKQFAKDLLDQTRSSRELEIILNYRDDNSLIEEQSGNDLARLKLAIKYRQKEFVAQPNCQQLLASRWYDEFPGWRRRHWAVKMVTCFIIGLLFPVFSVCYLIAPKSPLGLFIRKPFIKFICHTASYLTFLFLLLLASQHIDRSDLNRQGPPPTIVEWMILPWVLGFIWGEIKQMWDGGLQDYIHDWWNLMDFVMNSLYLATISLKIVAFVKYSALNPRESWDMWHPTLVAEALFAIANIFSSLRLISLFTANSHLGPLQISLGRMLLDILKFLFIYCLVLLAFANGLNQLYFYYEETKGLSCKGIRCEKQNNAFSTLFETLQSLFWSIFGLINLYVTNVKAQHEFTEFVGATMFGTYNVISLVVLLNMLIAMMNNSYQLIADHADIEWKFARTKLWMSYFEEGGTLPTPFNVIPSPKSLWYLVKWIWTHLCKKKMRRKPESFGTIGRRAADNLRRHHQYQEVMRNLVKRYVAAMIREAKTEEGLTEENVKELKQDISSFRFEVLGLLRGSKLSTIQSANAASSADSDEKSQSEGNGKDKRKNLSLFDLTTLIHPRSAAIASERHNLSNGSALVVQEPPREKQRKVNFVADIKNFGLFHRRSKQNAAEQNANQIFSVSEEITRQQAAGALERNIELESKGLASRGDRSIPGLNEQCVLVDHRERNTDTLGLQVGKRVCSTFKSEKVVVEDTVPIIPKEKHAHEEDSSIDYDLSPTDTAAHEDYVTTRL
In words: mouse TRPC4 channel activators, dose response, cell-based, HEK293 TRPC4/mu-opioid, Fluo-4 calcium (AID 434937). It counts as functional.

The next assay addresses Large T antigen (Simian virus 40, UniProt P03070). It counts as functional, Betapolyomavirus macacae.
A short description of assay [4]: intracellular Trypanosoma cruzi inhibitors in host cells – cell-based, plate reader, cherry-pick samples, set 3, dose response (AID 651818).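 Further: compounds incubated with infected cells for about four days.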 Format: functional.
In assay [5] the target is Induced myeloid leukemia cell differentiation protein Mcl-1 (Homo sapiens, UniProt Q07820). It counts as functional.
Assay [6] deals with T3, Corticotropin-releasing factor receptor 2/Corticotropin-releasing factor-binding protein (Homo sapiens, UniProt P24387+Q13324).
T3 sequence (Q13324 whole entry): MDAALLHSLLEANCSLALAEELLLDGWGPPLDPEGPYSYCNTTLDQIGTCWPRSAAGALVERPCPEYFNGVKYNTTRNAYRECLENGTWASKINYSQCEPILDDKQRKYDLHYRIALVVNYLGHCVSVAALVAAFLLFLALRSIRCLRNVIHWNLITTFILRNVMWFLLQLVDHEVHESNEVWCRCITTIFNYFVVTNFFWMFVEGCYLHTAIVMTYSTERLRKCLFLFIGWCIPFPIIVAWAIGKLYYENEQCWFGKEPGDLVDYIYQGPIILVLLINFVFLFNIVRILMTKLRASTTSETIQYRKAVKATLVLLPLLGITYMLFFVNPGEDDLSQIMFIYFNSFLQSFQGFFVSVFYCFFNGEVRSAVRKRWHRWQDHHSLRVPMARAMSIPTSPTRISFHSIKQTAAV
T3 sequence (P24387 whole entry): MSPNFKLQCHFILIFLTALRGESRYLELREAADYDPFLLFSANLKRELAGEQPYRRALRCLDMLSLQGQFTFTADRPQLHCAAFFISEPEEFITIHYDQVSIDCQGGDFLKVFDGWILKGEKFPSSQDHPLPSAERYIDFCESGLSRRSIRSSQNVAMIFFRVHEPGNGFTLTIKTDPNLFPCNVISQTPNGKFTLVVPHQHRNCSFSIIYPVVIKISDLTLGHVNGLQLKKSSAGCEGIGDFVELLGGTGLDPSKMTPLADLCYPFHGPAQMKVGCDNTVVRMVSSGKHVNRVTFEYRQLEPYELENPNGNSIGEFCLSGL
The assay is described as follows: activators of CRF receptor 2 with binding protein – uHTS hits, confirmation (AID 602473). To be noted: read-out: EC50_Mean. Format: functional.

Assay [7] has as its target T4, RNA-binding protein pos-1 (Caenorhabditis elegans, UniProt G5EF15).
T4 sequence (G5EF15 whole entry): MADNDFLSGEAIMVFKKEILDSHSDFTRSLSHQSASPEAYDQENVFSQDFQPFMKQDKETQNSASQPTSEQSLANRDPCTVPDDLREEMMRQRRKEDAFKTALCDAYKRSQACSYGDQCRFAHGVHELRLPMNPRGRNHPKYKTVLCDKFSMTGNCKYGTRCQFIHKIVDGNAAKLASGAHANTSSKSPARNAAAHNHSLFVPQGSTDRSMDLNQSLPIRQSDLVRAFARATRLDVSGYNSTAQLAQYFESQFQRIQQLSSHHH
The assay is described as follows: inhibitors of POS-1/mex-3 RNA binding, dose response, biochemical, fluorescence polarization (AID 1964).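 Further: purified POS-1 fused to maltose binding protein made in E. coli; potency of compounds blocking POS-1 binding to fluorescent RNA.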

The target in assay [8] is T5, Zinc finger protein mex-5 (Caenorhabditis elegans, UniProt Q9XUB2).
T5 sequence (Q9XUB2 whole entry): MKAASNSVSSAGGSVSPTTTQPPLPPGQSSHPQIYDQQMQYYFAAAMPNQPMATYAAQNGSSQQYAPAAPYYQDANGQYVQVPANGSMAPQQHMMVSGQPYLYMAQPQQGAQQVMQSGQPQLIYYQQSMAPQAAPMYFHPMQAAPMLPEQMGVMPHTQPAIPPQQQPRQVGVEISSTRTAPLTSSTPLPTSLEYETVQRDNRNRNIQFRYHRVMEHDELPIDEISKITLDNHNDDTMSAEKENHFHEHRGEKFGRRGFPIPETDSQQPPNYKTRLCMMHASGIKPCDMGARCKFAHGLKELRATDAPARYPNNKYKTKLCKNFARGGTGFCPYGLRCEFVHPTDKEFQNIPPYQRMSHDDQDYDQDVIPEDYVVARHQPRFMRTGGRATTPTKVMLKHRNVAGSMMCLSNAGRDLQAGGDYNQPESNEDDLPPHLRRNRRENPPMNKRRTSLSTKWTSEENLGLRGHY
In words: MEX-5/TCR-2 RNA interaction inhibitors, dose response, biochemical, C. elegans, fluorescence polarization (AID 1960).

Another assay relates to INS1. In words: beta cell apoptosis inhibitors, cytokine rescue, dose response, luminescence, retest (AID 449756).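 Further: cell death triggered by IL-1 beta plus TNF-alpha plus IFN-gamma mixture; protective hits raise ATP signal compared with cytokine alone wells.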 Format: functional, cell-based. Particulars: Rattus norvegicus.
Assay [9] is described as follows: cytotoxicity toward NIH3T3 fibroblasts, dose response, counter-screen, cell-based, ATP luminescence, mouse fibroblasts (AID 2010).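 Further: cells exposed to compound for about 90 hours before reading.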 Format: functional.
Assay [10] in a line: inhibitors of intracellular T. cruzi replication, confirmation, NIH3T3 host cells, beta-gal luminescence (AID 2044).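 Further: intracellular parasites grown in NIH/3T3 mouse fibroblasts as host cells; luminescent beta-galactosidase reporter signal from transgenic T. cruzi replicating inside host cells; inhibitors lower the luminescence signal.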 Format: functional, cell-based.
The target of assay [11] is FAD-linked sulfhydryl oxidase ALR (Homo sapiens, UniProt P55789). In words: inhibitors of human ALR sulfhydryl oxidase, dose response, biochemical, H2O2 detection, luminescence, cherry-pick (AID 493248).
FAD-linked sulfhydryl oxidase ALR, sequence (P55789 whole entry): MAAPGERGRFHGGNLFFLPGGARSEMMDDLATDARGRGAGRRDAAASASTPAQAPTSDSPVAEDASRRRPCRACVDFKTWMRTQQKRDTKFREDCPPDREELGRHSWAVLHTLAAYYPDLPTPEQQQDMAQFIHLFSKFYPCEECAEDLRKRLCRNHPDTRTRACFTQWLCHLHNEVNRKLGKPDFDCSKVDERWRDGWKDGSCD

T1 sequence (P11940 whole entry): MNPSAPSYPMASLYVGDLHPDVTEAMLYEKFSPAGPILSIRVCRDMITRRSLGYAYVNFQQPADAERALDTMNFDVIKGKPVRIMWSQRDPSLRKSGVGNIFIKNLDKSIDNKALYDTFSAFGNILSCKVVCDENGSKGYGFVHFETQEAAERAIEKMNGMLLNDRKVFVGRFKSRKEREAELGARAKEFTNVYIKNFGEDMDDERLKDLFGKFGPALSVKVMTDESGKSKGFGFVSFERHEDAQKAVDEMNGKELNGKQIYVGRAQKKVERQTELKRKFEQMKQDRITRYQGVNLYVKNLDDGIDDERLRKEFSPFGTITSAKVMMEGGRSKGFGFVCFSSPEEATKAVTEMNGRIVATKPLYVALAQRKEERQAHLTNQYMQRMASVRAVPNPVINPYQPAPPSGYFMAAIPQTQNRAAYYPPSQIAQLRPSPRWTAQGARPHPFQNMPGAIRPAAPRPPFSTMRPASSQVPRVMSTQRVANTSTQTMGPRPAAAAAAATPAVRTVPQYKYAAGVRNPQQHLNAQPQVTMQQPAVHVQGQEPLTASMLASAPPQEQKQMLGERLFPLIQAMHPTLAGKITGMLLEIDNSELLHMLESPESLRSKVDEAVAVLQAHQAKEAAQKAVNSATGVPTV
Large T antigen, sequence (P03070 whole entry): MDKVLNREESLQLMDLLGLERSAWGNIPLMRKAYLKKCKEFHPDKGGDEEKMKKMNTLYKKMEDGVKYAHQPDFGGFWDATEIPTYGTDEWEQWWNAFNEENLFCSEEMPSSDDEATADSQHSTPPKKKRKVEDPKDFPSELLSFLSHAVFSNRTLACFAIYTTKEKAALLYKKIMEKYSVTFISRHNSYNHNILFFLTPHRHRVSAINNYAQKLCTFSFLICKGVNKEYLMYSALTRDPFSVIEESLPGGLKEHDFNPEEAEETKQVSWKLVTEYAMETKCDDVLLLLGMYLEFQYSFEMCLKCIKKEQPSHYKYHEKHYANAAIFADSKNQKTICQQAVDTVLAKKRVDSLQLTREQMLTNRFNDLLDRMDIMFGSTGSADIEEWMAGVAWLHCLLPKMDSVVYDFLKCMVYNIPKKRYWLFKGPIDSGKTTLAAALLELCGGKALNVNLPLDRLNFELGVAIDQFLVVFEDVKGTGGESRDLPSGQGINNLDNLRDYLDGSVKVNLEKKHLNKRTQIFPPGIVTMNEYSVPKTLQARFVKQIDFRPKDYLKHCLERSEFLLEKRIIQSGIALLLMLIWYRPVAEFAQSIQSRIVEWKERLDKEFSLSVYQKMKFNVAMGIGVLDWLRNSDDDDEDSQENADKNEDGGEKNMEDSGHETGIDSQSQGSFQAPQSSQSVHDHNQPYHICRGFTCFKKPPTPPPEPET
Induced myeloid leukemia cell differentiation protein Mcl-1, sequence (Q07820 whole entry): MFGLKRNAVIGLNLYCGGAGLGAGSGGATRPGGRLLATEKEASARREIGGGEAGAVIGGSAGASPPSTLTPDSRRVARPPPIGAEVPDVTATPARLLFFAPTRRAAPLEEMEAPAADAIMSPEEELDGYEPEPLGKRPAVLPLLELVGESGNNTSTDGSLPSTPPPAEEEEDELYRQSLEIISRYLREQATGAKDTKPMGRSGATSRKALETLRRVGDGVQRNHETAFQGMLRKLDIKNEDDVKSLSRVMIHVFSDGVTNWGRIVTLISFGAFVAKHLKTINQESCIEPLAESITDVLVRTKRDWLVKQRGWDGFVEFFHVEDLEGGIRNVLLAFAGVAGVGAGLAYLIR

As to `Cc1cccc(N(C)C(=O)CCS(=O)(=O)c2cc3c(cc2Cl)NC(=O)CO3)c1`, the IC50 in assay [1] and in [2] was > 66 µM (inactive) each time.

For the compound `CCCN(CCC)CCCNC(=O)C1CCN(S(=O)(=O)c2cccc3nsnc23)CC1`, the EC50 in assay [3] is 0.133 µM (active). In the case of `Cc1ccc(NC(S)=Nc2ccccn2)cc1C`, the IC50 in [1] and in assay [2] was > 66 µM (inactive) in each case. Regarding `CCOc1cc(/C=N/NC(=O)CCn2nnc3ccccc32)ccc1O`, the IC50 on Large T antigen is 10.4 µM (active).

What is called AC50 is the concentration at which the activity in the assay is half-maximal. In the case of `C[C@H](CO)N1C[C@H](C)[C@@H](CN(C)Cc2ccc(-c3ccccc3)cc2)Oc2c(NC(=O)CCCCCC(=O)Nc3ccccc3N)cccc2C1=O`, the AC50 in assay [4] was 1.6 µM (active). As for `O=C(CSc1ccsc1[N+](=O)[O-])N1CCN(c2ccc(Cl)cc2)CC1`, in assay [5], the IC50 was 5.8 µM (active). Regarding `CCOC(=O)c1c(-c2ccc(C)cc2)csc1NC(=O)/C(C#N)=C/c1ccc(O)c(OC)c1`, the EC50 in assay [6] is 2.87 µM (active). Moreover, in [5], the IC50 is > 54 µM (active).

Regarding `CC1CN(C2CC(C)(C)NC(C)(C)C2)CCC1=O` (stereo not drawn), the EC50 in assay [7] and in assay [8] was > 300 µM (not active) in each case. As to `COc1ccc(-c2c(-c3ccc(O)cc3O)n[nH]c2C)cc1OC`, the IC50 on Large T antigen is 33.6 µM (active). For the compound `COc1ccc(/C(C)=N\NC(=O)CSc2nnc(C)s2)cc1`, the IC50 in assay [1] and in [2] was > 66 µM (inactive) throughout. Take `Cc1ccc(S(=O)(=O)Nc2ccc3c(c2)C(=O)N([C@@H](C)CO)C[C@@H](C)[C@@H](CN(C)Cc2ccc(Cl)c(Cl)c2)O3)cc1`: the AC50 in assay [4] was 3.36 µM (active). Turning to `O=[N+]([O-])c1cccc(N/N=C/c2cc([N+](=O)[O-])ccc2O)c1`, in assay [5], the IC50 is < 0.4 µM (active). As for `C[C@H]1CN([C@@H](C)CO)C(=O)c2cccc(NS(=O)(=O)c3ccc(Cl)cc3)c2O[C@H]1CN(C)Cc1ccc(C(=O)Nc2ccccc2N)cc1`, the AC50 in assay [4] was 2.28 µM (active). Same read-out and setting: as for `C[C@H]1CN([C@@H](C)CO)C(=O)Cc2cc(N(C)C)ccc2O[C@@H]1CN(C)Cc1ccc(C(F)(F)F)cc1`, the figure is 0.991 µM (active).

For the compound `CC1CC(C)CN(CCCNS(=O)(=O)c2cc(Br)cc3c2N(C(=O)C2CC2)CC3)C1` (stereo not drawn), the EC50 in [3] is 0.0267 µM (active). As for `COc1ccccc1N=C(S)NNC(=O)c1cc(C)n(C)n1`, the results for the EC50 in assay [7] and in [8] were 50.3 µM (active) and 58.4 µM (active), respectively.

Regarding `COc1ccc2[nH]c3c(=O)n(Cc4ccc(C(=O)N5CCCC5)cc4)c(=S)[nH]c3c2c1`, the IC50 in [5] is reported as 3.5 µM (not active). For the compound `COC(=O)C1CCN(Cc2cn(-c3ccccc3)nc2-c2ccc3c(c2)OCO3)CC1`, in assay [3], the EC50 was 1.88 µM (active). Regarding `Cn1ncc2c(NNC(=O)c3ccc(O)cc3)ncnc21`, the EC50 in assay [7] was 39.5 µM (active); in assay [8], 6.35 µM (active). Turning to `Cc1cc(-c2ccccc2)cc(C)[n+]1Cc1ccccc1.[O-][Cl+3]([O-])([O-])[O-]`, the EC50 in assay [3] is 1.88 µM (active). The AC50 with INS1 is 0.719 µM (active). Consider `CC(C)c1ccc(O)c(NC(=S)NC(=O)CCc2ccccc2)c1`, for which the IC50 in [1] and in [2] was > 66 µM (inactive) throughout. As to `O=[N+]([O-])c1cc(-c2ccc([As](=O)(O)O)cc2)ccc1[As](=O)(O)O`, the values for the EC50 in assay [7] and in [8] were 22.8 µM (inconclusive) and 18 µM (active), respectively. With `COC(=O)CSc1nnc(CNc2ccc(OC)cc2)n1C`, at Large T antigen, the IC50 is 45.8 µM (active). On the same count and under the same terms, under `Oc1cccc2cnccc12` stands 17.1 µM (active). As to `Cc1ccc(C)c(OCCCCCn2ccnc2)c1`, the EC50 in [9] was 4.76 µM (active); in [3], 3.35 µM (active); in [10], 0.505 µM (active). Consider `C[C@H](CO)N1C[C@H](C)[C@H](CN(C)S(=O)(=O)c2cccs2)Oc2c(NC(=O)c3nc4ccccc4s3)cccc2C1=O`, for which, in [4], the AC50 was 1.67 µM (active). Regarding `COc1ccc(OC)c(/C=N/NC(=O)CCc2ccc(O)c(O)c2)c1`, on Large T antigen, the IC50 is 19.1 µM (active). For `COc1ccc(N2CCN(Cc3nc4ccccc4n3C)CC2)cc1`, the AC50 in assay [11] was 8.25 µM (active). Moreover, the EC50 in assay [3] is 6.68 µM (active).

Take `CC1(C)CC(=O)C2=C(C1)OC(N)=C(C#N)C2c1ccc2c(c1)OCO2` (stereo not drawn): the EC50 in [7] and in assay [8] was > 300 µM (not active) in each case.

On to `C=CCc1c(C)nc(SCCC)nc1O`, for which the IC50 in assay [5] was 9.1 µM (not active). For `C[C@@H]1CN([C@H](C)CO)C(=O)c2cccc(NC(=O)CCCCCC(=O)Nc3ccccc3N)c2O[C@H]1CN(C)CC1CCCCC1`, the AC50 in assay [4] is 3.18 µM (active). Consider `Cc1noc(C)c1S(=O)(=O)Nc1cccc2c1O[C@H](CN(C)Cc1ccc(C(=O)Nc3ccccc3N)cc1)[C@H](C)CN([C@H](C)CO)C2=O`, for which, in [4], the AC50 was 3.53 µM (active).

Turning to `Cc1cccc(Oc2nc(-c3ccccn3)nc3ccccc23)c1`, the results for the EC50 in assay [7] and in assay [8] were > 300 µM (not active) and 173 µM (active), respectively.
